Results reported in US6162830A, “Benzenesulfonamide inhibitors of PDE-IV and their therapeutic use” (Warner-Lambert Company, priority 2000, dated 2000).

Test system: PDE-IV
Assay: PDE-IV Assay Procedure (SPA, 3H-cAMP, U937 lysate)
Type: biochemical
Conditions: U937 cell lysate as PDE-IV source; 200 nM cAMP, 8 nM 3H-cAMP; pH 8.0; 2% DMSO; 1 hour at 37° C.; initially tested at 10, 3, 1, 0.3, 0.1 μM
Description: Representative compounds to be tested were diluted in 96-well plates. The compounds were either received as a 10 mM stock solution in DMSO, or as a solid which was resuspended to a concentration of 10 mM in DMSO. The compounds were initially tested at 10, 3, 1, 0.3, and 0.1 μM to calculate an IC50. In some cases, plates containing diluted compounds were frozen before being assayed. In these cases, the plates were thawed for 15 minutes at 37° C. and agitated before proceeding.
Two microliters of the diluted compounds on Rolipram were spotted into an assay plate. Ninety-eight microliters of reaction mixture containing PDE-IV enzyme were added to each well. The plate was then agitated for 2 minutes at a setting of 3.5 on a vortex and incubated for 1 hour at 37° C. The reaction was terminated with 50 μl of 0.5X SPA beads, and the reaction tray was allowed to incubate at room temperature for 20 minutes before radioactivity was measured using standard instrumentation.
The reaction mixture contained 35.2 mM Tris pH 8.0, 9.4 mM MgCl2, 4 mM β-mercapotoethanol, 200 nM cAMP, 8 nM ^3 H-cAMP, 2% DMSO 1% U937 lysate (from ABS). The reaction mixture was prepared by adding […] H2 O to 10 mL 10X Assay Buffer, 40 μL 1 μCi/μL ^3 H-cAMP, 20 μL 1 mM cAMP (cAMP stock made fresh each time), and 1 mL U937 cell lysate. 10X assay buffer was prepared by mixing 400 mM Tris Base with 400 mM Tris HCl to pH 8.0, adding to 100 mL of this Tris buffer solution, 1.017 g MgCl2, 319 μL μ-mercaptoethanol. 0.5X SPA beads was prepared by adding 500 mg beads to 56 mL H2 O for a final concentration of 8.9 mg/mL beads and 9 mM zinc sulfate.

Structure (SMILES)	IC50 [µM]
CCN(C)S(=O)(=O)c1ccc(OC)c(OC)c1 [Example 11, N-Ethyl-N-methyl-3,4-dimethoxybenzenesulfonamide]	0.7
COc1ccc(S(=O)(=O)N(C)CC#N)cc1OC [Example 23, N-(methylenenitrile)-N-methyl-3,4-dimethoxybenzenesulfonamide]	1.76
COc1ccc(S(=O)(=O)NC2CCCCC2)cc1OC [Example 9, N-(3,4-dimethoxybenzenesulfonyl)cyclohexylamine]	2.2
C=CCN(C)S(=O)(=O)c1ccc(OC)c(OC)c1 [Example 15, N-(2-Propenyl)-N-methyl-3,4-dimethoxybenzenesulfonamide]	0.66
COc1ccc(S(=O)(=O)N2CCCC2)cc1OC [Example 8, N-(3,4-dimethoxybenzenesulfonyl)pyrrolidine]	3.2
CCCN(C)S(=O)(=O)c1ccc(OC)c(OC)c1 [Example 12, N-Propyl-N-methyl-3,4-dimethoxybenzenesulfonamide]	0.47
COc1ccc(S(=O)(=O)N2CCCCC2)cc1OC [Example 7, N-(3,4-dimethoxybenzenesulfonyl)piperidine]	3.6
CCCN(CCC)S(=O)(=O)c1ccc(OC)c(OC)c1 [Example 4, N,N-Dipropyl-3,4-dimethoxybenzenesulfonamide]	0.46
CC=CCN(C)S(=O)(=O)c1ccc(OC)c(OC)c1 [Example 16, N-(2-Butenyl)-N-methyl-3,4-dimethoxybenzenesulfonamide]	1.56
C#CCN(C)S(=O)(=O)c1ccc(OCC)c(OCC)c1 [Example 10, N-(2-Propynyl)-N-methyl-3,4-diethoxybenzenesulfonamide]	0.17
CCOc1ccc(S(=O)(=O)N(C)C)cc1OCC [Example 6, N,N-Dimethyl-3,4-diethoxybenzenesulfonamide]	0.28
C=CCN(CC=C)S(=O)(=O)c1ccc(OC)c(OC)c1 [Example 5, N,N-Di-(2-propenyl)-3,4-dimethoxybenzenesulfonamide]	0.45
C=CCN(C)S(=O)(=O)c1ccc(OCC)c(OCC)c1 [Example 17, N-(2-Propenyl)-N-methyl-3,4-diethoxybenzenesulfonamide]	0.02
